# pIC50: −log10 of the molar value. Where two headings read alike, the source gives them in different places.
# Columns and labels:
# MCF7 breast cancer cells [1] = assay: Cytotoxicity MTT assay on MCF7 breast cancer cells; assay type: cell-based, human; details: MTT after 72 h incubation; for pIC50: 37 °C, read-out: IC50, cytotoxicity with respect to MCF7 breast cancer cells
# Method: The cytotoxicity of the compounds was determined according to a procedure reported previously. MCF7 breast cancer cells were maintained in RPMI-1640 medium with 10% fetal bovine serum (FBS). The cells were plated into 96-well plates with a density of 1.0 × 10^4 cells per well. After 24 h incubation, the cells were exposed to different concentrations of compounds, with cisplatin as a positive control and with 1% filtered ethanol as a negative control. The MTT assay was conducted after 72 h of incubation at 37 °C and 5% CO2.
# HT29, HeLA, MCF7 = details: range over HT29, HeLA, MCF7 value from current study; cited from earlier work
# Excerpt: (§1) Table 2 Diversity of biological activities reported for Lyngbyabellins in the literature from 2000 to 2020. | column: IC50 (µM)
# [2] = test system: Amphibalanus amphitrite barnacle larvae; assay: Antifouling (settlement inhibition) assay on A. amphitrite cyprids; assay type: in vivo
# Method: As for all the compounds, the activity remained after 120 h of exposure.
# The antifouling activity of the compounds was determined according to a procedure reported previously. Briefly, the newly developed cyprids of A. amphitrite were tested against several different concentrations of the isolated compounds (1–5) (0.03–10 μg/mL) in triplicate (n = 3). The assays were conducted using 24-well polystyrene culture plates, with each well containing 2 mL seawater and six cyprids. […] The total number of dead cyprids was counted after 120 h of exposure. Antifouling activity was expressed as an EC50 according to Probit analysis. CuSO4 was used as a positive control and 80% filtered (0.20 µm of pore filter) natural seawater (diluted with deionized water) as a negative control.
# Plasmodium [3] = details: antimalarial, cited from earlier work
# Excerpt: Table 1 Structural diversity and antimalarial potential of secondary metabolites derived from cyanobacteria. | column: IC50 (µM)
# Plasmodium [4] = details: antimalarial; pLDH; cited from earlier work
# Excerpt: (§2) Table 1 Structural diversity and antimalarial potential of secondary metabolites derived from cyanobacteria. | column: IC50 (µM) || As part of an effort to identify antiplasmodial and antifouling metabolites, two cyanobacteria from two geographically distinct environments were studied: a Malaysian Moorea bouillonii and a Red Sea Okeania sp. Moorea and Okeania genera were delineated from the Lyngbya genus. As phylogenetically close genera, they produce similar compounds. In this study, the lyngbyabellin family depsipeptides were isolated from Moorea bouillonii and Okeania sp. These kinds of compounds were initially found in the sea hare Dolabella auricularia after being identified from cyanobacterial origins as p ...
# [5] = test system: various cancer cell lines; details: cited from earlier work
# Excerpt: as §2, with “As” for “Table 1 Structural diversity and antimalarial potential of secondary metabolites derived from cyanobacteria. | column: IC50 (µM) || As”
# HT29, HeLA, CA46, PtK2 = details: range over HT29, HeLA; cited from earlier work
# Excerpt: as §1
# KB, LoVo = details: range over KB; cited from earlier work
# Excerpt: as §1
# KB = details: cited from earlier work
# Excerpt: as §1
# H460, Neuro-2a = details: range over H460, Neuro-2a; cited from earlier work
# Excerpt: as §1
# HT29, HeLA = details: range over HT29, HeLA; cited from earlier work
# Excerpt: as §1
# H460 = details: cited from earlier work
# Excerpt: as §1
# H460, HCT116 = details: range over H460, HCT116; cited from earlier work
# Excerpt: as §1
# [6] = test system: Plasmodium falciparum strain FCR-3; assay: Antiplasmodial assay, Giemsa staining; assay type: cell-based
# Method: Compound 1 isolated from Okeania sp., and compounds 6 and 7 from M. bouillonii were tested against the malaria parasite (P. falciparum). […] The assay was repeated three times in the concentration range of 0.05–10 (μg/mL). It is noteworthy that the mechanisms of antiplasmodial compounds isolated from M. bouillonii impeding the growth of Plasmodium are still unclear. […] However, as 1 and 7 were reported as cytotoxic towards cancer cells, we hypothesized that they act in the same way on erythrocytes, which distorts the results of the antimalarial assay.
# The Giemsa staining method previously described by Aydin-Schmidt was used to evaluate the ability of compounds to inhibit the malaria parasite. A synchronized culture of Plasmodium falciparum strain FCR-3, the late-ring stage, was used (parasitemia 2%) for this assay. A series of compound concentrations were applied in 96-well microplates and incubated for 72 h at 37 °C in a reduced oxygen atmosphere. Compounds 1, 6, and 7 were dissolved in DMSO and tested in triplicate at three separate times. Chloroquine was used as a positive control and cultured medium with 1% DMSO (final concentration of solvent in all compound tested) as a negative control. Each assay was conducted in triplicate (n = 3). After 72 h, the parasitic level was evaluated by Giemsa and light microscopy. The inhibition level of compounds against Plasmodium was calculated using the formula previously reported.
# [7] = test system: P. falciparum (liver-stage); details: cited from earlier work
# Excerpt: as §1
# HT29, HeLA, KB, LoVo = details: range over HT29, HeLA; cited from earlier work
# Excerpt: as §1
# MCF7 breast cancer cells [8] = details: cited from earlier work
# Excerpt: These differences in cytotoxicity were attributed to the dissimilarities in their structures.
# H460, Neuro-2a, MCF7 = details: range over H460, Neuro-2a, cited from earlier work
# Excerpt: as §1
# [9] = test system: Amphibalanus amphitrite barnacle larvae; design: method as in PMID 29019684; details: A.amphitrite barnacle cypris; cited from earlier work
# [10] = A.amphitrite barnacle cypris, current study
# [11] = strain FCR-3, late-ring (intraerythrocytic) stage, parasitemia 2%, 72 h, 37 °C, 0.05–10 μg/mL, repeated three times, triplicate, read-out: IC50 against malaria parasite (P. falciparum)
# [12] = previous study, read-out: IC50, cytotoxicity with respect to MCF7 breast cancer cells
compound,measurement,setting,value
27-deoxylyngbyabellin A [Compound 5],pIC50,MCF7 breast cancer cells [1],6.51
same,pIC50,"HT29, HeLA, MCF7",6.51 to 8.14
same,EC50,[2]; [10],0.09 µg/mL
same,Toxicity to A.amphitrite barnacle cypris (remark in EC50 cell),[2]; current study,0.09 (but toxic)
same,Toxicity to larvae,"[2]; exposed to 1 µg/mL, dead cyprids counted after 120 h of exposure",almost all the larvae were dead
C/C1=C/C(=O)O[C@H](C(C)(C)C)CCC[C@H](O)CCC[C@H](O)CCC[C@H](O)CCC[C@@H](O)C[C@@H](O)C[C@H](O)CCC[C@@H](O)CCC[C@@H](O)C[C@@H](O)CCCCC1 [Bastimolide A],pIC50,Plasmodium [3]; Sybr Green,6.57
C/C1=C/C(=O)O[C@H](CCC[C@@H](O)CCC[C@@H](O)CCC[C@@H](O)CCC[C@H](O)C(C)(C)C)C[C@@H](O)C[C@H](O)CCC[C@@H](O)CCC[C@@H](O)C[C@@H](O)CCCCC1 [Bastimolide B],pIC50,Plasmodium [3]; Pico-Green,5.24
Carmabin A,pIC50,Plasmodium [3]; Pico-Green,5.37
Companeramide A,pIC50,Plasmodium [3]; Sybr Green,5.24
Dolastatin 10,pIC50,Plasmodium [4],10.00
same,Selectivity index against various cancer cell lines,[5],≤ 1
Dolastatin 15,pIC50,Plasmodium [4],8.62
Dragomabin,pIC50,Plasmodium [3]; Pico-Green,5.22
Gallinamide A,pIC50,Plasmodium [3]; Pico-Green,5.08
Hoshinoamide A,pIC50,Plasmodium [4],5.28
Ikoamide,pIC50,Plasmodium [4],6.85
Kakeromamide B,pIC50,Plasmodium [3]; Sybr Green,5.05
Lyngbyabellin B,pIC50,"HT29, HeLA, CA46, PtK2",5.96 to 7.00
Lyngbyabellin C,pIC50,"KB, LoVo",5.28 to 5.68
Lyngbyabellin D,pIC50,KB,7.00
Lyngbyabellin E,pIC50,"H460, Neuro-2a",5.92 to 6.40
Lyngbyabellin F,pIC50,"H460, Neuro-2a",5.74 to 6.00
Lyngbyabellin I,pIC50,"H460, Neuro-2a",6.00 to 6.15
Lyngbyabellin J,pIC50,"HT29, HeLA",7.27 to 7.39
Lyngbyabellin K,IC50 (µM),H460,Inactive
Lyngbyabellin L,IC50 (µM),H460,Inactive
Lyngbyabellin M,IC50 (µM),H460,Inactive
Lyngbyabellin N,pIC50,"H460, HCT116",5.74 to 8.32
Mabunamide,pIC50,Plasmodium [4],5.85
Ulongamide A,pIC50,Plasmodium [3]; Sybr Green,6.00
Venturamide A,pIC50,Plasmodium [3]; Pico-Green,5.09
homohydroxydolabellin [Compound 6],Cytotoxicity towards MCF7 cells,MCF7 breast cancer cells [1],> 50 µg/mL
same,Cytotoxicity with respect to MCF7 breast cancer cells (in words),MCF7 breast cancer cells [1],non-cytotoxicity
same,pIC50,[6]; [11],5.19
lyngbyabellin A [Compound 7],pIC50,[7],8.82
same,pIC50,"HT29, HeLA, KB, LoVo",6.46 to 7.68
same,pIC50,Plasmodium [3]; Sybr Green,8.82
same,pIC50,"[6]; P.falciparum (intraerythrocytic stage), current study, read-out: IC50",6.52
lyngbyabellin G [Compound 1],pIC50,MCF7 breast cancer cells [8]; [12],3.92
same,pIC50,"H460, Neuro-2a, MCF7",3.92 to 5.66
same,EC50,[9],4.41 µg/mL
same,pIC50,[6]; [11],5.96
lyngbyabellin H [Compound 4],pIC50,MCF7 breast cancer cells [1],7.15
same,pIC50,"H460, Neuro-2a, MCF7; MCF7 value from current study",5.85 to 7.15
same,Antifouling activity at 10 µg/mL,"[2]; 10 µg/mL, 48 h exposure, triplicate (n = 3)",inactive
same,EC50(µg/mL),[2]; [10],Inactive
lyngbyabellin O [Compound 2],IC50 (µM),MCF7 breast cancer cells [8]; MCF7,Inactive
same,pIC50,MCF7 breast cancer cells [8]; [12],< 3.80
same,EC50,[9],0.24 µg/mL
lyngbyabellin P [Compound 3],pIC50,"MCF7 breast cancer cells [8]; MCF7, read-out: IC50",5.05
same,EC50,[9],0.62 µg/mL

# From publication PMC7504728, “Bioactivities of Lyngbyabellins from Cyanobacteria of Moorea and Okeania Genera” (Molecules, 2020)
